# Data published in PubChem BioAssay (NCI).
#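 Tested at 5 concentrations; 48 h exposure; 96-well plates; endpoints linearly interpolated, else capped at highest concentration. Abbreviation: GI50, concentration required for 50% inhibition of growth. TGI marks complete inhibition of growth.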
# What was measured:
# Assay in all cases: NCI-60 cell line screen, 48 h
# IGROV1 ovarian = test system: IGROV1 ovarian
# CAKI-1 renal = test system: CAKI-1 renal
# RPMI-8226 leukemia = test system: RPMI-8226 leukemia
# MALME-3M melanoma = test system: MALME-3M melanoma
# UO-31 renal = test system: UO-31 renal
# SK-MEL-28 melanoma = test system: SK-MEL-28 melanoma
# MDA-MB-435 = test system: MDA-MB-435
# LOX IMVI melanoma = test system: LOX IMVI melanoma
# COLO 205 colon = test system: COLO 205 colon
# OVCAR-8 ovarian = test system: OVCAR-8 ovarian
# RXF 393 renal = test system: RXF 393 renal
# CCRF-CEM leukemia = test system: CCRF-CEM leukemia
# EKVX NSCLC = test system: EKVX NSCLC
# HL-60(TB) leukemia = test system: HL-60(TB) leukemia
# OVCAR-3 ovarian = test system: OVCAR-3 ovarian
# ACHN renal = test system: ACHN renal
# DU-145 prostate = test system: DU-145 prostate
# NCI-H226 lung = test system: NCI-H226 lung
# HS 578T breast = test system: HS 578T breast
# HOP-92 NSCLC = test system: HOP-92 NSCLC
# U251 CNS = test system: U251 CNS
# K-562 leukemia = test system: K-562 leukemia
# MOLT-4 leukemia = test system: MOLT-4 leukemia
# OVCAR-4 ovarian = test system: OVCAR-4 ovarian
# M14 melanoma = test system: M14 melanoma
# MCF7 breast = test system: MCF7 breast
# SK-MEL-5 melanoma = test system: SK-MEL-5 melanoma
# NCI-H23 lung = test system: NCI-H23 lung
# HCT-116 colon = test system: HCT-116 colon
# SF-295 CNS = test system: SF-295 CNS
# A549 NSCLC = test system: A549 NSCLC
# HCC-2998 colon = test system: HCC-2998 colon
# SNB-75 CNS = test system: SNB-75 CNS
# SNB-19 CNS = test system: SNB-19 CNS
# HOP-62 NSCLC = test system: HOP-62 NSCLC
# HT29 colon = test system: HT29 colon
# SR leukemia = test system: SR leukemia
# NCI-H522 lung = test system: NCI-H522 lung
# NCI-H460 lung = test system: NCI-H460 lung
# PC-3 prostate = test system: PC-3 prostate
# UACC-62 melanoma = test system: UACC-62 melanoma
# SF-268 CNS = test system: SF-268 CNS
# SW-620 colon = test system: SW-620 colon
# BT-549 breast = test system: BT-549 breast
# HCT-15 colon = test system: HCT-15 colon
# A498 renal = test system: A498 renal
# TK-10 renal = test system: TK-10 renal
# NCI/ADR-RES ovarian = test system: NCI/ADR-RES ovarian
# SN12C renal = test system: SN12C renal
# 786-0 renal = test system: 786-0 renal
# SK-OV-3 ovarian = test system: SK-OV-3 ovarian
# UACC-257 melanoma = test system: UACC-257 melanoma
# MDA-MB-231 breast = test system: MDA-MB-231 breast
# SF-539 CNS = test system: SF-539 CNS
# KM12 colon = test system: KM12 colon
# OVCAR-5 ovarian = test system: OVCAR-5 ovarian
smiles,measurement,setting,value
COc1cc(C2C=C(c3cccc(NC(C)=O)c3)Nc3ncnn32)cc(OC)c1OC (centres undefined),GI50,IGROV1 ovarian,650 nM
same,TGI,IGROV1 ovarian,> 26500 nM
same,GI50,CAKI-1 renal,573 nM
same,TGI,CAKI-1 renal,> 100000 nM
same,GI50,RPMI-8226 leukemia,3350 nM
same,TGI,RPMI-8226 leukemia,32500 nM
same,GI50,MALME-3M melanoma,389 nM
same,TGI,MALME-3M melanoma,> 100000 nM
same,GI50,UO-31 renal,33500 nM
same,TGI,UO-31 renal,> 100000 nM
same,GI50,SK-MEL-28 melanoma,290 nM
same,TGI,SK-MEL-28 melanoma,> 100000 nM
same,GI50,MDA-MB-435,117 nM
same,TGI,MDA-MB-435,579 nM
same,GI50,LOX IMVI melanoma,596 nM
same,TGI,LOX IMVI melanoma,> 100000 nM
same,GI50,COLO 205 colon,308 nM
same,TGI,COLO 205 colon,1730 nM
same,GI50,OVCAR-8 ovarian,327 nM
same,TGI,OVCAR-8 ovarian,> 100000 nM
same,GI50,RXF 393 renal,576 nM
same,TGI,RXF 393 renal,> 100000 nM
same,GI50,CCRF-CEM leukemia,720 nM
same,TGI,CCRF-CEM leukemia,4160 nM
same,GI50,EKVX NSCLC,737 nM
same,TGI,EKVX NSCLC,> 100000 nM
same,GI50,HL-60(TB) leukemia,443 nM
same,TGI,HL-60(TB) leukemia,2280 nM
same,GI50,OVCAR-3 ovarian,236 nM
same,TGI,OVCAR-3 ovarian,645 nM
same,GI50,ACHN renal,3470 nM
same,TGI,ACHN renal,> 100000 nM
same,GI50,DU-145 prostate,440 nM
same,TGI,DU-145 prostate,7340 nM
same,GI50,NCI-H226 lung,667 nM
same,TGI,NCI-H226 lung,> 100000 nM
same,GI50,HS 578T breast,153 nM
same,TGI,HS 578T breast,413 nM
same,TGI,HOP-92 NSCLC,> 65100 nM
same,GI50,U251 CNS,395 nM
same,TGI,U251 CNS,> 100000 nM
same,GI50,K-562 leukemia,447 nM
same,TGI,K-562 leukemia,> 44100 nM
same,GI50,MOLT-4 leukemia,1650 nM
same,TGI,MOLT-4 leukemia,> 100000 nM
same,GI50,OVCAR-4 ovarian,5800 nM
same,TGI,OVCAR-4 ovarian,> 100000 nM
same,GI50,M14 melanoma,392 nM
same,TGI,M14 melanoma,> 100000 nM
same,GI50,MCF7 breast,317 nM
same,TGI,MCF7 breast,> 100000 nM
same,GI50,SK-MEL-5 melanoma,397 nM
same,TGI,SK-MEL-5 melanoma,22200 nM
same,GI50,NCI-H23 lung,468 nM
same,TGI,NCI-H23 lung,> 100000 nM
same,GI50,HCT-116 colon,424 nM
same,TGI,HCT-116 colon,> 70200 nM
same,GI50,SF-295 CNS,229 nM
same,TGI,SF-295 CNS,> 32800 nM
same,GI50,A549 NSCLC,6680 nM
same,TGI,A549 NSCLC,> 100000 nM
same,GI50,HCC-2998 colon,56.6 nM
same,TGI,HCC-2998 colon,489 nM
same,GI50,SNB-75 CNS,4140 nM
same,TGI,SNB-75 CNS,> 100000 nM
same,GI50,SNB-19 CNS,1210 nM
same,TGI,SNB-19 CNS,> 100000 nM
same,GI50,HOP-62 NSCLC,554 nM
same,TGI,HOP-62 NSCLC,> 100000 nM
same,GI50,HT29 colon,1380 nM
same,TGI,HT29 colon,> 100000 nM
same,GI50,SR leukemia,437 nM
same,GI50,NCI-H522 lung,1490 nM
same,TGI,NCI-H522 lung,> 100000 nM
same,GI50,NCI-H460 lung,2140 nM
same,TGI,NCI-H460 lung,> 100000 nM
same,GI50,PC-3 prostate,1130 nM
same,TGI,PC-3 prostate,> 100000 nM
same,GI50,UACC-62 melanoma,262 nM
same,TGI,UACC-62 melanoma,> 100000 nM
same,GI50,SF-268 CNS,675 nM
same,TGI,SF-268 CNS,> 100000 nM
same,GI50,SW-620 colon,313 nM
same,TGI,SW-620 colon,> 100000 nM
same,GI50,BT-549 breast,1070 nM
same,TGI,BT-549 breast,> 100000 nM
same,GI50,HCT-15 colon,2020 nM
same,TGI,HCT-15 colon,> 100000 nM
same,GI50,A498 renal,242 nM
same,TGI,A498 renal,4670 nM
same,GI50,TK-10 renal,7550 nM
same,TGI,TK-10 renal,> 100000 nM
same,GI50,NCI/ADR-RES ovarian,8040 nM
same,TGI,NCI/ADR-RES ovarian,63700 nM
same,GI50,SN12C renal,489 nM
same,TGI,SN12C renal,> 100000 nM
same,GI50,786-0 renal,615 nM
same,TGI,786-0 renal,> 100000 nM
same,GI50,SK-OV-3 ovarian,903 nM
same,TGI,SK-OV-3 ovarian,> 100000 nM
same,GI50,UACC-257 melanoma,> 92500 nM
same,TGI,UACC-257 melanoma,> 100000 nM
same,GI50,MDA-MB-231 breast,2110 nM
same,TGI,MDA-MB-231 breast,> 55900 nM
same,GI50,SF-539 CNS,367 nM
same,TGI,SF-539 CNS,2000 nM
same,GI50,KM12 colon,396 nM
same,TGI,KM12 colon,> 100000 nM
same,TGI,OVCAR-5 ovarian,> 100000 nM
